From ChEMBL document CHEMBL1132060, “Octa- and nonaprenylhydroquinone sulfates, inhibitors of alpha1,3-fucosyltransferase VII, from an Australian marine sponge Sarcotragus sp” (Bioorg Med Chem Lett, 1999) come the findings set out here.

The assay is described as follows: Inhibitory activity against fuc-TVII.

`CC(C)=CCC/C(C)=C/CC/C(C)=C/CC/C(C)=C/CC/C(C)=C/CC/C(C)=C/CC/C(C)=C/CC/C(C)=C/Cc1cc(O)ccc1OS(=O)(=O)[O-].[Na+]` had an IC50 of 3.9 µg/mL.
With `CC(C)=CCC/C(C)=C/CC/C(C)=C/CC/C(C)=C/CC/C(C)=C/CC/C(C)=C/CC/C(C)=C/CC/C(C)=C/CC/C(C)=C/Cc1cc(O)ccc1OS(=O)(=O)[O-].[Na+]` the figure was 2.4 µg/mL.

As a reminder, the IC50 is the point on the concentration scale where inhibition reaches its midpoint. Low readings indicate inhibition by little substance, high ones a need for much substance.
